Target: T1, TfCut2 (Thermobifida fusca, UniProt Q6A0I4)
T1 construct: gene cut2; gene without signal peptide from T. fusca KW3 genomic DNA, pET-20b(+) with pelB leader and His6 tag, E. coli BL21(DE3), purified
Assay: PET film hydrolysis, released products by RP-HPLC; Lineweaver-Burk slope replot
Type: biochemical
Settings: amorphous PET film substrate, 0.2 M sodium phosphate pH 8.0, 60 °C, 1 h; MOPS 0.05-0.075 M; competitive
Source text: PET film hydrolysis, released products by RP-HPLC; Lineweaver-Burk slope replot on TfCut2

T1 sequence (Q6A0I4 41-301): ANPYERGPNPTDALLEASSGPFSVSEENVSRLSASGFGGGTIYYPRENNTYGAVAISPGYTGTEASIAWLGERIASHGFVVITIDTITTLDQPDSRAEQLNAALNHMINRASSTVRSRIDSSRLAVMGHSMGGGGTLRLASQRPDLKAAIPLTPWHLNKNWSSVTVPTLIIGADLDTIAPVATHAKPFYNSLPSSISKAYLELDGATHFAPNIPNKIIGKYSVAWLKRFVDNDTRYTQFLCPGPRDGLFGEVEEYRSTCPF

Ki: 80 mM
Structure (SMILES): O=S(=O)(O)CCCN1CCOCC1 [MOPS, 3‐(N‐morpholino)propanesulfonic acid]
